Experimental data published in patent US5654411A, “Process for preparing 4-deoxyerythromycin derivatives” (Abbott Laboratories, priority 1995, dated 1997).

System: smooth muscle strips isolated from rabbit small intestine
Assay: Induction of in vitro rabbit duodenal smooth muscle contraction
Conditions: for EC50: Oryctolagus cuniculus, rabbit duodenum longitudinal muscle, 37° C., pH 7.5, read-out: pED50 (negative logarithm of the concentration producing half of the maximal contraction) (converted); for Relative Potency: relative to erythromycin A = 1.0
Experimental: The compounds of the present invention were tested in vitro for their ability to induce contraction of smooth muscle strips isolated from rabbit small intestine using the following procedure:
Rabbits were sacrificed and 15 cm of duodenum was rapidly removed and placed in ice-cold modified Ringers solution (120 mM sodium chloride, 25 mM sodium bicarbonate, 4.7 mM potassium chloride, 1.25 mM calcium chloride, 1.20 mM magnesium sulfate and 5.6 mM glucose). The longitudinal muscle layer was separated from the circular muscle by blunt dissection and cut into strips of 10×20 mm. Double-folded strips were vertically suspended between two hooks in 10 mL tissue baths with a mechanical preload of 1 g. The upper hook was connected to an […] force transducer, and its displacement was recorded on a Grass polygraph. The tissue baths contained modified Ringers solution at 37° C. and were continuously gassed with 95% oxygen/5% carbon dioxide in order to maintain the pH at 7.5.
After a stabilization period of at least 60 minutes, a contractility dose-response series was performed by adding increasing final concentrations of methacholine (10^-7 M, 10^-6 M and 10^-5 M) in volumes of 100 μL. The bath solutions were replaced at least three times between doses.
After the methacholine dose-response series was completed, a test compound dose response curve was initiated by the same procedure used for the methacholine dose-response series, with at least five concentrations of test compound within the range of 10^-10 M to 10^-4 M. The tissues were washed repeatedly between doses, and the studies were completed by recording the contractile response to 10^-5 M methacholine to ascertain integrity of the muscle preparation. Contractile responses were expressed as percent of maximal contraction. The concentration of test compound which produces half of the maximal contraction (ED50 value) and the negative logarithm of the ED50 value (PED50) were estimated from the dose-response curves.

| EC50 | SMILES | Relative Potency |
| --- | --- | --- |
| 40.7 nM | C#CC[N+](C)(C)[C@H]1C[C@@H](C)O[C@@H](O[C@@H]2[C@@H](C)[C@H](O[C@H]3C[C@@](C)(OC)C[C@H](C)O3)[C@@H](C)C(=O)O[C@H](CC)[C@@](C)(O)[C@H](O)[C@@H](C)C3O[C@]2(C)C[C@H]3C)[C@@H]1O [Example 16, 9-deoxo-4",6-dideoxy-6,9-epoxy-3'-N-propargylerythromycin A bromide] | 35 |
| 0.00316 nM | CC[C@H]1OC(=O)[C@H](C)[C@@H](O[C@H]2C[C@@](C)(OC)C[C@H](C)O2)[C@H](C)[C@@H](O[C@@H]2O[C@H](C)C[C@H](N(C)CC)[C@H]2O)[C@@]2(C)CC(C)=C(O2)[C@H](C)[C@@H](O)[C@]1(C)O [Example 4, 8,9-anhydro-4"-deoxy-3'-N-desmethyl-3'-N-ethylerythromycin A-6,9-hemiketal] | 199,526 |
| 0.166 nM | CC[C@H]1OC(=O)[C@H](C)[C@@H](O[C@H]2C[C@@](C)(OC)C[C@H](C)O2)[C@H](C)[C@@H](O[C@@H]2O[C@H](C)C[C@H](N(C)C)[C@H]2O)[C@@]2(C)C[C@@H](C)C(O2)[C@H](C)[C@@H](O)[C@]1(C)O [Example 13, 9-deoxo-4",6-dideoxy-6,9-epoxyerythromycin A] | 8,511 |

| SMILES | EC50 | Relative Potency |
| --- | --- | --- |
| CC[C@H]1OC(=O)[C@H](C)[C@@H](O[C@H]2C[C@@](C)(OC)[C@@H](O)[C@H](C)O2)[C@H](C)[C@@H](O[C@@H]2O[C@H](C)C[C@H](N(C)C)[C@H]2O)[C@](C)(O)C[C@@H](C)C(=O)[C@H](C)[C@@H](O)[C@]1(C)O [erythromycin A, reference compound] | 1410 nM | – |
